# Legend:
# [1] = tested on: rats persistently choosing the left side of the labyrinth; assay: Lateralization of free behaviour in the T-shaped labyrinth; assay type: in vivo, rat; details: for Number of runs to the right, Series I / Number of runs to the right, Series II / Number of runs to the right, Series III: 20 animals
# Procedure: Also studied was the change of lateralization of free behaviour of rats in the T-shaped labyrinth. In the experiment rats of both sexes with a mass of 180-230 g were used. Preliminary experiments were carried out on 120 animals, then a group of 40 animals was chosen which during 20 days selected the left corridor in the first attempt of running through the labyrinth.
# The data on the capacity of the preparation according to the present invention to enhance the domination of one (left) brain hemisphere have been supported in behaviour experiments on rats where the change in lateralization of a free behaviour of rats in a T-shaped labyrinth was studied.
# [2] = tested on: cerebral cortex of rabbits; assay: Asymmetry factor by induced potential in the hearing zone of the cerebral cortex; assay type: in vivo, rabbit
# Outline: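 Rabbits under nembutal (40 mg/kg) got symmetric electrodes in left and right temporal auditory cortex; clicks at 0.1-0.2 Hz, 5-80 dB via earphones evoked potentials. Preparations given subcutaneously as 0.5-1.5% aqueous solutions 20 min before recording; amplitudes measured and asymmetry factor computed from both hemispheres.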
# [3] = tested on: learning ability of rats preliminarily sorted out for poor learning ability; assay: Active avoidance learning in a shuttle chamber, rats sorted out for poor learning ability; assay type: in vivo, rat; details: poorly learning rats
# rabbits = assay: Chronic toxicity, rabbits; assay type: in vivo, rabbit; details: hypodermal, 2 months
# Source text: (§1) The chronic toxicity of the preparation was studied on three species of animals (rats, dogs, rabbits). In chronic tests on the above-mentioned animals the effect of a long-time hypodermal administration of the preparation according to the present invention on the general state and mass of animals, hemogram, cardio-vascular system, breathing central nervous system, functional state of kidneys, liver, thyroid gland was studied. […] The doses of the preparation employed in the experiments surpassed the required dose for a human being (per kilogram of bodymass) by 5-10 times.
# [4] = Carcinogenic, mutagenic, teratogenic, embryotoxic effect
# rats = assay: Chronic toxicity, rats; assay type: in vivo, rat; details: hypodermal, 3 months
# Source text: as §1
# [5] = Allergenic activity tests
# Procedure: Allergenic activity tests were also carried out for the preparation according to the present invention.
# patients = assay: Tolerability and side effects in patients; assay type: in vivo, human
smiles,measurement,setting,value
"Cl.Nc1c2c(nc3c1CCC3)CCCC2.O [preparation of the invention, 9-amino-2,3,5,6,7,8-hexahydro-1H-cyclopenta(b)quinoline monohydrate hydrochloride]",choice of the right side of the labyrinth (in words),[1],statistically markedly increased
same,"Number of runs to the right, Series I",[1]; hypodermally 5 mg/kg,10
same,"Number of runs to the right, Series II",[1]; hypodermally 5 mg/kg,12
same,"Number of runs to the right, Series III",[1]; hypodermally 5 mg/kg,14
same,"Number of runs to the right, Series I",[1]; hypodermally 10 mg/kg,9
same,"Number of runs to the right, Series II",[1]; hypodermally 10 mg/kg,14
same,"Number of runs to the right, Series III",[1]; hypodermally 10 mg/kg,15
same,asymmetry factor (in words),[2],the asymmetry factor is also increased
same,% of knowledge retention,[3]; hypodermally 5 mg/kg,64.3%
same,"Number of combinations till appearance of ""learning criterion"", I teaching",[3]; hypodermally 5 mg/kg,21 ± 2.7
same,"Number of combinations till appearance of ""learning criterion"", II-checking of retention of knowledge",[3]; hypodermally 5 mg/kg,7.5 ± 0.9
same,Number of untaught animals in the group,[3]; hypodermally 5 mg/kg,3/20
same,% of knowledge retention,[3]; hypodermally I mg/kg,57.5%
same,"Number of combinations till appearance of ""learning criterion"", I teaching",[3]; hypodermally I mg/kg,24 ± 2.5
same,"Number of combinations till appearance of ""learning criterion"", II-checking of retention of knowledge",[3]; hypodermally I mg/kg,10.2 ± 1.5
same,Number of untaught animals in the group,[3]; hypodermally I mg/kg,6/20
same,chronic toxicity,rabbits,no toxic effect
same,carcinogenic effect,[4],"neither provides a carcinogenic, mutagenic, teratogenic or embryotoxic effect"
same,embryotoxic effect,[4],"neither provides a carcinogenic, mutagenic, teratogenic or embryotoxic effect"
same,mutagenic effect,[4],"neither provides a carcinogenic, mutagenic, teratogenic or embryotoxic effect"
same,teratogenic effect,[4],"neither provides a carcinogenic, mutagenic, teratogenic or embryotoxic effect"
same,chronic toxicity,rats,no toxic effect
same,allergenic effect,[5],no allergenic effect
same,"side effects, rare cases",patients; eliminated by lowering dose or temporary suspension,reduction or elevation of arterial pressure and bradycardia
same,tolerability,patients; patients,well-bearable by patients
same,side effects,patients; signs of stimulation of m-cholinergic systems,"nausea, diarrhea, less frequently--vomition"

# Source: patent publication US4735953A, “Pharmaceutical preparation for learning stimulation and memory improvement” (priority 1986, dated 1988)
